Earlier results in patent US11260097B2, “Immunomodulatory composition to treat and/or prevent COVID-19 illness” (priority 2020, dated 2022).

Experiments:
[1] = in vivo
[2] = high doses

## C[C@@H]1O[C@@H](O[C@H]2[C@H](O[C@H]3CC[C@@]4(C)[C@@H](CC[C@]5(C)[C@@H]4CC=C4[C@@H]6CC(C)(C)CC[C@]6(C(=O)O)CC[C@]45C)[C@]3(C)CO)OC[C@H](O)[C@@H]2O)[C@H](O)[C@H](O)[C@H]1O [alpha-heridin, alpha-hederin]
other
  water solubility: water soluble

## Nigellidine
other
  solubility in acid media: soluble in acid media

## glycophosphopeptical [AM3]
[1]
  onset of clinical improvement in cough, sputum and shortness of breath: 3 days

## CC1=CC(=O)C(C(C)C)=CC1=O [thymoquinone, 2-isopropyl-5-methyl-1,4benzoquinone]
[2]
  toxicity: toxicity at high doses
other
  water solubility: poor water solubility
